Tests used:
Axl [1] = biological target: T1, Axl (Homo sapiens, UniProt P30530); assay: HTRF KinEASE-TK biochemical potency assay, AXL; design: purchased Invitrogen; details: 5 nM AXL, 700 μM ATP, 800 nM TK Substrate-biotin
T1 sequence (P30530 26-894): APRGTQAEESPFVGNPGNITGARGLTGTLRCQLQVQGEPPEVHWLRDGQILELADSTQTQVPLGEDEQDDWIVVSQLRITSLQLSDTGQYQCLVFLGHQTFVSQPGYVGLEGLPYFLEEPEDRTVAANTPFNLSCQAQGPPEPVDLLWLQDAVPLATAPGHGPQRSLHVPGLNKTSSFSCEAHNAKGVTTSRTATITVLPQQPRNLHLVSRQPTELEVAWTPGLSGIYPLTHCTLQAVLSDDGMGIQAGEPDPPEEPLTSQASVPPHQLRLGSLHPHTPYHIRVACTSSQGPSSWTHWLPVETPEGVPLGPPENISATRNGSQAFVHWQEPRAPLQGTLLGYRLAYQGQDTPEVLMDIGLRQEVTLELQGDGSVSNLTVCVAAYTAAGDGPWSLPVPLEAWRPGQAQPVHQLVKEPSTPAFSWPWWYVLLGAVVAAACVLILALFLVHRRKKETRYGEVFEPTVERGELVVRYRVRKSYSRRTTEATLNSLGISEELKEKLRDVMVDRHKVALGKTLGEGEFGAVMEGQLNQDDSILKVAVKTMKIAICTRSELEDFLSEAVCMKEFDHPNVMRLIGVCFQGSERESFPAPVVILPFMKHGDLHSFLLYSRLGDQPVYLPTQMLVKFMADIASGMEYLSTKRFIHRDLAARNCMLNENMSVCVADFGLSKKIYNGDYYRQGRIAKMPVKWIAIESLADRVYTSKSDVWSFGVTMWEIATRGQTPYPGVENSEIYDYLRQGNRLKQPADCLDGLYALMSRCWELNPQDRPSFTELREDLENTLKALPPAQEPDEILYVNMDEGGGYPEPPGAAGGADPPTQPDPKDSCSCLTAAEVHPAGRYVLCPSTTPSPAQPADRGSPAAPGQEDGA
Procedure, shortened: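 Final conditions: 5 nM AXL, 1 nM TYRO3 or MER, 50 mM HEPES pH 7.4, 10 mM MgCl2, 0.01% BSA, 1 mM DTT, 700 μM ATP. Reaction ran 2 h at RT after 1 h preincubation with compound; HTRF signal read at 665/620 nm.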

Axl [2] = biological target: T1, Axl; assay: Axl NanoBRET intracellular kinase assay (intracellular binding, Cell Binding); design: host or cells: HEK-293; details: HEK-293 cells transfected with Axl-NanoLuc fusion vector; 0.35 μM K-5 NanoBRET tracer
Procedure, shortened: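 In intact HEK-293 cells transiently expressing NanoLuc-tagged Axl, compounds compete with the K-5 tracer (0.35 μM, 2 h, 37 °C) after a 1 h preincubation. Readout is the 610/450 nm emission ratio.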

| Compound | IC50 (Axl [1]) [nM] | IC50 (Axl [2]) [nM] |
| --- | --- | --- |
| CS(=O)(=O)N1CCC(c2n[nH]c3ncc(-c4ccc5c(c4)CCC(N4CCCC4)CC5)cc23)CC1 (centres unmarked) [Example 23, 1-Methanesulfonyl-4-{5-[7-(pyrrolidin-1-yl)-6,7,8,9-tetrahydro-5H-benzo[7]annulen-2-yl]-1H-pyrazolo[3,4-b]pyridin-3-yl}piperidine] | < 100 | 100 to 1000 |
| CC(C)(O)c1ccc(-c2n[nH]c3ncc(-c4ccc5c(c4)CCC(N4CCCC4)CC5)cc23)cc1Cl (centres unmarked) [Example 11, 2-(2-Chloro-4-{5-[7-(pyrrolidin-1-yl)-6,7,8,9-tetrahydro-5H-benzo[7]annulen-2-yl]-1H-pyrazolo[3,4-b]pyridin-3-yl}phenyl)propan-2-ol] | < 100 | < 100 |
| CC(C)(O)c1ccc(-c2n[nH]c3ncc(-c4cc5c(cn4)CCC(N4CCCC4)CC5)cc23)cc1Cl (centres unmarked) [Example 59, 2-(2-Chloro-4-{5-[7-(pyrrolidin-1-yl)-5H,6H,7H,8H,9H-cyclohepta[c]pyridin-3-yl]-1H-pyrazolo[3,4-b]pyridin-3-yl}phenyl)propan-2-ol] | < 100 | < 100 |
| C[C@@H]1CCCN1C1(C)CCc2ccc(-c3cnc4[nH]nc(-c5ccc(N6CCOCC6)cc5)c4c3)cc2CC1 (stereo partly drawn) [Example 107, 4-[4-(5-{7-Methyl-7-[(2R)-2-methylpyrrolidin-1-yl]-6,7,8,9-tetrahydro-5H-benzo[7]annulen-2-yl}-1H-pyrazolo[3,4-b]pyridin-3-yl)phenyl]morpholine] | < 100 | > 1000 |
| C[C@H]1CCCN1C1CCc2ccc(-c3cnc4[nH]nc(-c5ccc(S(C)(=O)=O)cc5)c4c3)cc2CC1 (stereo partly drawn) [Example 36, 5-(7-((S)-2-Methylpyrrolidin-1-yl)-6,7,8,9-tetrahydro-5H-benzo[7]annulen-2-yl)-3-(4-(methylsulfonyl)phenyl)-1H-pyrazolo[3,4-b]pyridine] | < 100 | < 100 |
| COCCOc1ccc(-c2n[nH]c3ncc(-c4ccc5c(c4)CC[C@@H](N4C6COCC4C6)CC5)cc23)cc1 [Example 123, 6-[(7S)-2-{3-[4-(2-methoxyethoxy)phenyl]-2H-pyrazolo[3,4-b]pyridin-5-yl}-6,7,8,9-tetrahydro-5H-benzo[7]annulen-7-yl]-3-oxa-6-azabicyclo[3.1.1]heptane] | < 100 | < 100 |

The remaining lines, values ahead:

| IC50 (Axl [1]) [nM] | IC50 (Axl [2]) [nM] | Compound |
| --- | --- | --- |
| < 100 | < 100 | COc1cc(-c2n[nH]c3ncc(-c4ccc5c(c4)CCC(C)(N4CCC[C@H]4C)CC5)cc23)ccc1OC[C@H]1COCCO1 (stereo partly drawn) [Example 114, (2R)-1-{2-[3-(4-{[(2R)-1,4-Dioxan-2-yl]methoxy}-3-methoxyphenyl)-1H-pyrazolo[3,4-b]pyridin-5-yl]-7-methyl-6,7,8,9-tetrahydro-5H-benzo[7]annulen-7-yl}-2-methylpyrrolidine] |
| < 100 | < 100 | C[C@@H]1CCCN1C1(C)CCc2ccc(-c3cnc4[nH]nc(-c5ccc(S(=O)(=O)N6CCC6)cc5)c4c3)cc2CC1 (stereo partly drawn) [Example 104, (2R)-1-(2-{3-[4-(Azetidine-1-sulfonyl)phenyl]-1H-pyrazolo[3,4-b]pyridin-5-yl}-7-methyl-6,7,8,9-tetrahydro-5H-benzo[7]annulen-7-yl)-2-methylpyrrolidine] |
| < 100 | < 100 | O=C1CCCN1c1ccc(-c2n[nH]c3ncc(-c4ccc5c(c4)CC[C@@H](N4C6COCC4C6)CC5)cc23)cc1 [Example 122, 1-(4-{5-[(7S)-7-{3-oxa-6-azabicyclo[3.1.1]heptan-6-yl}-6,7,8,9-tetrahydro-5H-benzo[7]annulen-2-yl]-2H-pyrazolo[3,4-b]pyridin-3-yl}phenyl)pyrrolidin-2-one] |
| < 100 | < 100 | Cc1cc(-c2n[nH]c3ncc(-c4ccc5c(c4)CC[C@@H](N4CCCC4)CC5)cc23)cc(Cl)c1C(N)=O [Example 50, 2-Chloro-6-methyl-4-{5-[(7S)-7-(pyrrolidin-1-yl)-6,7,8,9-tetrahydro-5H-benzo[7]annulen-2-yl]-1H-pyrazolo[3,4-b]pyridin-3-yl}benzamide] |

From patent US20240246967A1, “AXL COMPOUNDS” (ARCUS BIOSCIENCES, INC., priority 2021, published 2024)
